In ChEMBL document CHEMBL1158906, “Biological Activities of Avarol Derivatives, 1. Amino Derivatives” (J Nat Prod, 1990):
Converted amounts (≈) assume the structure as drawn.

Experiments:
Staphylococcus aureus = assay: Antimicrobial activity against Staphylococcus aureus ATCC 25293 by serial dilution method; format: functional
[1] = tested on: Agrobacterium tumefaciens; assay: Antitumor activity assessed as inhibition of Agrobacterium tumefaciens B6-induced tumor formation after 12 days by potato disk assay; format: functional
Artemia = assay: Toxicity against brine shrimp; format: organism-based; conditions: in vivo

Row | Structure (SMILES) | MIC (Staphylococcus aureus) [µg/mL] | inhibition (INH) [1] [%] | LC50 (Artemia) [ppm]
1 | CCNC1=CC(=O)C=C(C[C@]2(C)[C@@H](C)CC[C@]3(C)C(C)=CCC[C@@H]23)C1=O | > 100 | 54 | 0.81
2 | CC1=CCC[C@H]2[C@](C)(CC3=CC(=O)C(N[C@@H](C)C(=O)O)=CC3=O)[C@@H](C)CC[C@]12C | 6.25 (≈ 15.6 µM) | 38 | 2
3 | CC1=CCC[C@H]2[C@](C)(CC3=CC(=O)C=C(N)C3=O)[C@@H](C)CC[C@]12C | 50 (≈ 153 µM) | 53 | 0.24
4 | CC1=CCC[C@H]2[C@](C)(CC3=CC(=O)C(N[C@@H]4[C@@H](O)[C@H](O)[C@@H](CO)O[C@H]4O)=CC3=O)[C@@H](C)CC[C@]12C | 6.25 (≈ 12.8 µM) | 38 | 11.5
5 | CC1=CCC[C@H]2[C@](C)(CC3=CC(=O)C(N)=CC3=O)[C@@H](C)CC[C@]12C | 50 (≈ 153 µM) | 55 | 0.23
6 | CNC1=CC(=O)C(C[C@]2(C)[C@@H](C)CC[C@]3(C)C(C)=CCC[C@@H]23)=CC1=O | > 100 | 57 | 0.34
7 | CCNC1=CC(=O)C(C[C@]2(C)[C@@H](C)CC[C@]3(C)C(C)=CCC[C@@H]23)=CC1=O | > 100 | 38 | 0.27
8 | CC1=CCC[C@H]2[C@](C)(Cc3cc(=O)c4[nH]c5ncnc6ncn(c=4c3=O)c65)[C@@H](C)CC[C@]12C | 12.5 (≈ 28.2 µM) | 27 | 70.2
9 | CC1=CCC[C@H]2[C@](C)(CC3=CC(=O)C=CC3=O)[C@@H](C)CC[C@]12C [AVARONE] | 1.56 (≈ 4.99 µM) | 63 | 0.14
10 | CC1(C)S[C@@H]2[C@H](NC(=O)Cc3ccccc3)C(=O)N2[C@H]1C(=O)[O-].[Na+] [PENICILLIN G SODIUM] | 0.04 | – | –
